Experimental data as given in patent US20100075960A1 (priority 2006, published 2010).

Tested on: HCT116
Test: Inhibition of cell proliferation, HCT116
Assay type: cell-based
Details: Homo sapiens, HCT-116; 72 h treatment; methylene blue or CellTiter-Glo
Procedure: II. Inhibition of Cell Proliferation by PLK1 Inhibitors.
Exponentially growing cell lines of different tumor origins, cultured in appropriate media containing 10% fetal bovine serum at 37° C. in a 5% CO2 incubator were plated in 96 or 384-well plates. Twenty four hours post-plating, cells were treated with different concentrations of test compounds ranging from 20 μM to 0.04 nM. Several wells were left untreated as a control. Seventy two hours post-treatment, cell numbers were determined using different techniques; 100 μl per well of methylene blue (Sigma M9140) (0.5% in 50:50 Ethanol:water), or 10-100 μl per well of CellTiter-Glo (Promega #G7573), depending on well size. For methylene blue staining, stain was incubated at room temperature for 30 minutes before plates were rinsed and dye solubilized in 1% N-lauroyl sarcosine, sodium salt, (Sigma L5125, in PBS). Plates were read on a microplate reader, measuring the OD at 620 nm. For CellTiter-Glo, plates were incubated at room temperature for 15 minutes and the chemiluminescent signal was read on the Victor V or Envison 2100 reader.
Percent inhibition of cell growth was expressed as percent proliferation relative to 100% proliferation (control). Concentration of test compound that inhibited 50% of cell growth (IC50) was determined by 4 parameter fit of data using XLfit, (value of no cell control was substracted from all samples for background). The data are shown in Table 1 and Table 2 below and represent a compilation of several different experiments each performed using the general parameters outlined above, although minor variations may have been employed in some instances, in Table 1 and Table 2, +=IC50>1 μM; ++=IC50 0.5-1 μM: +++=IC50<0.5 μM.

`Cc1cc(-c2ccc3c(c2)ncn3-c2cc(O[C@H](C)c3cccc(OC4CCN(C)CC4)c3Cl)c(C(N)=O)s2)ccn1` [Example 50, 3-[((1R)-1-{2-Chloro-3-[(1-methyl-4-piperidinyl)oxy]phenyl}ethyl)oxy]-5-[5-(2-methyl-4-pyridinyl)-1H-benzimidazol-1-yl]-2-thiophenecarboxamide] and `C[C@@H](Oc1cc(-n2cnc3cc(Br)ccc32)sc1C(N)=O)c1cccc(OC2CCN(C)CC2)c1Cl` [Example 51, 5-(5-Bromo-1H-benzimidazol-1-yl)-3-[((1R)-1-{2-chloro-3-[(1-methyl-4-piperidinyl)oxy]phenyl}ethyl)oxy]-2-thiophenecarboxamide] cannot be ordered by IC50: < 500 nM for the first, < 500 nM for the second.

`C[C@@H](Oc1cc(-n2cnc3ccc(Cl)cc32)sc1C(N)=O)c1cccc(OC2CCNCC2)c1Cl` [Example 52, 5-(6-Chloro-1H-benzimidazol-1-yl)-3-({(1R)-1-[2-chloro-3-(4-piperidinyloxy)phenyl}ethyl)oxy)-2-thiophenecarboxamide] and `C[C@@H](Oc1cc(-n2cnc3cc(Cl)c(F)cc32)sc1C(N)=O)c1cccc(OC2CCNCC2)c1Cl` [Example 67] cannot be ordered by IC50: < 500 nM for the first, < 500 nM for the second.

`C[C@@H](Oc1cc(-n2cnc3ccc(Cl)cc32)sc1C(N)=O)c1cccc(OC2CCN(C)CC2)c1Cl` [Example 53, 5-(6-Chloro-1H-benzimidazol-1-yl)-3-[((1R)-1-(2-chloro-3-([1-methyl-4-piperidinyl)oxy]phenyl)}oxy]-2-thiophenecarboxamide] and `C[C@@H](Oc1cc(-n2cnc3cc(Cl)c(F)cc32)sc1C(N)=O)c1cccc(OC2CCN(C)CC2)c1Cl` [Example 68, 5-(5-Chloro-6-fluoro-1H-benzimidazol-1-yl)-3-[((1R)-1-{2-chloro-3-[(1-methyl-4-piperidinyl)oxy]phenyl}ethyl)oxy]-2-thiophenecarboxamide] cannot be ordered by IC50: < 500 nM for the first, < 500 nM for the second.

`C[C@@H](Oc1cc(-n2cnc3ccc(CS(C)(=O)=O)cc32)sc1C(N)=O)c1cccc(OC2CCNCC2)c1Cl` [Example 54] and `C[C@@H](Oc1cc(-n2cnc3ccc(CS(C)(=O)=O)cc32)sc1C(N)=O)c1cccc(OCC2CCNCC2)c1Cl` [Example 56, 3-[((1R)-1-{2-chloro-3-[(4-piperidinylmethyl)oxy]phenyl}ethyl)oxy]-5-{6-[(methylsulfonyl)-methyl]-1H-benzimidazol-1-yl}-2-thiophenecarboxamide] cannot be ordered by IC50: > 1000 nM for the first, > 1000 nM for the second.

`C[C@@H](Oc1cc(-n2cnc3ccc(CS(C)(=O)=O)cc32)sc1C(N)=O)c1cccc(OC2CCN(C)CC2)c1Cl` [Example 55, 3-[((1R)-1-(2-chloro-3-[(1-methyl-4-piperidinyl)oxy]phenyl}ethyl)oxy]-5-(6-[(methylsulfonyl)methyl]1H-benzimidazol-1-yl}-2-thiophenecarboxamide] and `C[C@@H](Oc1cc(-n2cnc3ccc(CS(C)(=O)=O)cc32)sc1C(N)=O)c1cccc(OCC2CCCN2C)c1Cl` (stereo partly drawn) [Example 57] cannot be ordered by IC50: > 1000 nM for the first, > 1000 nM for the second.

`C[C@@H](Oc1cc(-n2cnc3cc(OC(F)(F)F)ccc32)sc1C(N)=O)c1cccc(OC2CCNCC2)c1Cl` [Example 61] and `C[C@@H](Oc1cc(-n2cnc3ccc(OC(F)(F)F)cc32)sc1C(N)=O)c1cccc(OC2CCNCC2)c1Cl` [Example 63, 3-({(1R)-1-[2-chloro-3-(4-piperidinyloxy)phenyl]ethyl}oxy)-5-[6-[(trifluoromethyl)oxy]-1H-1-benzimidazol-1-yl}-2-thiophenecarboxamide] cannot be ordered by IC50: < 500 nM for the first, < 500 nM for the second.

`C[C@@H](Oc1cc(-n2cnc3cc(OC(F)(F)F)ccc32)sc1C(N)=O)c1cccc(OC2CCN(C)CC2)c1Cl` [Example 62, 3-[((1R)-1-{2-chloro-3-[(1-methyl-4-piperidinyl)oxy]phenyl}ethyl)oxy]-5-{5-[(trifluoromethyl)oxy]-1H-benzimidazol-1-yl}-2-thiophenecarboxamide] and `C[C@@H](Oc1cc(-n2cnc3ccc(OC(F)(F)F)cc32)sc1C(N)=O)c1cccc(OC2CCN(C)CC2)c1Cl` [Example 64, 3-[((1R)-1-(2-chloro-3-[(1-methyl-4-piperidinyl)oxy]phenyl}ethyl)oxy]-5-{6-[(trifluoromethyl)oxy]-1H-benzimidazol-1-yl}-2-thiophenecarboxamide] cannot be ordered by IC50: < 500 nM for the first, < 500 nM for the second.

`C[C@@H](Oc1cc(-n2cnc3cc(F)c(F)cc32)sc1C(N)=O)c1cccc(OC2CCNCC2)c1Cl` [Example 65, 3-({(1R)-1-[2-chloro-3-(4-piperidinyloxy)phenyl]ethyl}oxy)-5-(5,6-difluoro-1H-benzimidazol-1-yl)-2-thiophenecarboxamide] and `C[C@@H](Oc1cc(-n2cnc3cc(F)c(Cl)cc32)sc1C(N)=O)c1cccc(OC2CCNCC2)c1Cl` [Example 69, 5-(6-Chloro-5-fluoro-1H-benzimidazol-1-yl)-3-({(1R)-1-[2-chloro-3-(4-piperidinyloxy)phenyl]ethyl}oxy)-2-thiophenecarboxamide] cannot be ordered by IC50: < 500 nM for the first, < 500 nM for the second.

`C[C@@H](Oc1cc(-n2cnc3cc(F)c(Cl)cc32)sc1C(N)=O)c1cccc(OC2CCN(C)CC2)c1Cl` [Example 70, 5-(6-Chloro-5-fluoro-1H-benzimidazol-1-yl)-3[((1R)-1-(2-chloro-3-[(1methyl-4-piperidinyl)oxy]phenyl}ethyl)oxy]-2-thiophenecarboxamide] and `C[C@@H](Oc1cc(-n2cnc3cc(Cl)c(Cl)cc32)sc1C(N)=O)c1cccc(OC2CCN(C)CC2)c1Cl` [Example 72, 3-[((1R)-1-(2-chloro-3-[(1-methyl-4-piperidinyl)oxy]phenyl}ethyl)oxy]-5-(5,6-dichloro-1H-benzimidazol-1-yl)-2-thiophenecarboxamide] cannot be ordered by IC50: < 500 nM for the first, < 500 nM for the second.

`C[C@@H](Oc1cc(-n2cnc3cc(Cl)c(Cl)cc32)sc1C(N)=O)c1cccc(OC2CCNCC2)c1Cl` [Example 71, 3-({(1R)-1-[2-Chloro-3-(4-piperidinyloxy)phenyl]ethyl}oxy)-5-(5,6-dichloro-1H-benzimidazol-1-yl)-2-thiophenecarboxamide] and `Cc1nnc(-c2ccc3c(c2)ncn3-c2cc(O[C@H](C)c3cccc(OC4CCNCC4)c3Cl)c(C(N)=O)s2)o1` [Example 87, 3-({(1R)-1-(2-Chloro-3-(4-piperidinyloxy)phenyl]ethyl}oxy)-5-[5-(5-methyl-1,3,4-oxadiazol-2-yl)-1H-benzimidazol-1-yl]-2-thiophenecarboxamide] cannot be ordered by IC50: < 500 nM for the first, < 500 nM for the second.

Compared with `CC(Oc1cc(-n2cnc3cc(-c4cnn(C)c4)ccc32)sc1C(N)=O)c1ccnc(OC2CCN(C)CC2)c1` (stereo not drawn) [Example 80], `CN1CCC(Oc2cccc(COc3cc(-n4cnc5cc(-c6cnn(C)c6)ccc54)sc3C(N)=O)c2)CC1` [Example 84, 3-[({3-[(1Methyl-4piperidinyl)oxy]phenyl}methyl)oxy]-5-[5-(1-methyl-1H-pyrazol-4-yl)-1H-benzimidazol-1-yl]-2-thiophenecarboxamide] is lower in IC50: > 1000 nM for the first, 500 to 1000 nM for the second.

`Cn1cc(-c2ccc3c(c2)ncn3-c2cc(OCc3cccc(OC4CCNCC4)c3)c(C(N)=O)s2)cn1` [Example 83, 5-[5-(1-Methyl-1H-pyrazol-4-yl)-1H-benzimidazol-1-yl]-3-({[3-(4-piperidinyloxy)phenyl]methyl}oxy)-2-thiophenecarboxamide] and `CC(Oc1cc(-n2cnc3cc(-c4cnn(C)c4)ccc32)sc1C(N)=O)c1cc(OC2CCNCC2)ccn1` (stereo not drawn) [Example 85, 5-[5-(1-Methyl-1H-pyrazol-4-yl)-1H-benzimidazol-1-yl]-3-({1-[4-(4-piperidinyloxy)-2-pyridinyl]ethyl}oxy)-2-thiophenecarboxamide] cannot be ordered by IC50: > 1000 nM for the first, > 1000 nM for the second.
